# Experimental data: US8729034B2, “Pharmaceutical composition having virucidal and spermicidal activity” (priority 2007, dated 2014)
# Experiments:
# [1] = test system: Salmonella typhimurium TA100; test: Bacterial reverse mutation assay (MUTA-CHROMOPLATE kit); details: Background = 20, Blank = 0
# Text: Ac-B was examined for its ability to produce mutations/revert mutations in a bacterial reverse mutation assay using amino acid-requiring strain of Salmonella typhimurium (S. typhimurium) TA100 and the result was compared with a known mutagen (Na-azide). A commercial kit (The MUTA-CHROMOPLATE) from M/s Environmental Biodetection Products Inc. Ontario, Canada, was used. Suspensions of bacterial cells were exposed to the test substance in the presence and in the absence of an exogenous metabolic activation system. After 5 days of incubation, revertant colonies were detected by the change of colour from blue to yellow on solvent control plates. All yellow, partially yellow or turbid wells were scored as positive, while all purple wells were scored as negative. Number of positive wells for each plate was recorded, their number was counted and compared to that of spontaneous revertant colonies. The “Background” (i.e. no test material added) plate was used as reference for the level of spontaneous or background mutation of the assay organism. The statistical difference was determined using a table provided with the kit.
# Score of mutagenicity as per the set criteria of Muta-Chromoplate test kit.
# human spermatozoa [2] = test: Sander & Cramer spermicidal assay (in vitro); type: cell-based; details: Human spermatozoa (N = 5); weakest concentration immobilizing all spermatozoa within 20 seconds
# Protocol: (§1) The exudates/liquefied human semen samples were suspended in BWW medium (pre equilibrated at 37 degree C.). The spermatozoa with forward motility were separated from immotile or sluggishly motile cells by the swim-up technique and were allowed to disperse evenly within a CO2 incubator at 37 degree C. At least five aliquots from each sample was used to prepare the working spermatozoa suspension. The swim up procedure was as follows:
# (§2) Pre equilibrated BWW medium (1.25 ml) was gently layered over cauda-exudates or liquefied human semen (1 ml) in a sterile 15 ml conical-based centrifuge tube. The tube was inclined at an angle of 45 degree and incubated for 1 hour at 37 degree C. in a CO2-incubator. It was then gently returned to the upright position and the uppermost 1 ml medium with a turbid appearance was removed. This aliquot of motile cells was pooled from each set, then diluted with same volumes of pre equilibrated BWW medium, centrifuged at 500 g for 5 minutes and finally resuspended in 1 ml pre equilibrated BWW medium to obtain a working suspension. The sperm cells were counted in a Makler chamber (Zygotec Systems, Springfield, M A, USA) and finally a working spermatozoa suspension having concentration of 25 to 30×10^6 cells/ml was prepared.
# (§3) For in vitro assay of spermicidal effect, sperms collected from proven male rats and mice, and motile spermatozoa from liquefied human semen were used.
# (§4) The assay was done following the Sander & Cramer assay method. Two hundred micro liter (200 microliters) of working spermatozoa suspension was added to 1 ml solution of test material in BWW medium and mixed on a light vortex for 10 seconds. A wet mount was immediately prepared on a clean microscopy glass slide and examined (at ×100) under a phase contrast microscope (Leitz, Biomed). The weakest concentration that immobilized all spermatozoa within 20 seconds of mixing was recorded as MEC. At least five fields were examined for each wet mount preparation. The observation was repeated with five individual spermatozoa suspension for each concentration of test compound solution. For negative control, saponin solutions were replaced by equal volume of BWW medium, while Nonoxynol 9 was used as positive control.
# mouse spermatozoa = test: Sander & Cramer spermicidal assay (in vitro); type: cell-based; details: Mouse spermatozoa (N = 10); all immobilized within 20 seconds
# Protocol: (§5) Sexually mature male mice and rats were autopsied following euthanasia by an overdose of Ketamin (≧200 mg/kg body weight; injected i.p.) and their cauda epididymis were excised. Working suspension of animal spermatozoa was prepared with the exudates obtained after careful pricking of the cauda epididymis with an injection needle (18 G) and the exudates were collected in a conical centrifuge tube.
# as §1, §2, §3, §4
# rat spermatozoa = test: Sander & Cramer spermicidal assay (in vitro); type: cell-based; details: Rat spermatozoa (N = 10); all immobilized within 20 seconds
# Protocol: as §5, §1, §2, §3, §4
# human spermatozoa [3] = details: cited from earlier work
Compound,No. of '+' wells (Muta-Chromoplate score) [1],MEC as per Sander and Cramer Test (human spermatozoa [2]) [microgram per ml],MEC as per Sander and Cramer Test (mouse spermatozoa),MEC as per Sander and Cramer Test (rat spermatozoa),MEC for N-9 (human spermatozoa [3]; closest prior arts),MEC of N-9 for spermicidal action (human spermatozoa [3]; comparison value in concluding remarks)
"[N-]=[N+]=[N-].[Na+] [Na-azide, reference compound]",74,,,,,
"isononyl-phenyl-polyoxyethylene (9) ether [Nonoxynol 9, reference compound]",,>350,350 (±10) microgram per ml,350 (±10) microgram per ml,200-500 microgram per ml,200-500 microgram
